Assay results taken from patent EP4653001A1, “TREATMENT, DIAGNOSIS AND/OR PROGNOSIS OF MITOCHONDRIAL DISEASES” (Universidad Autónoma de Madrid, priority 2024, dated 2025).

Columns and labels:
[1] = system: 143B cells; experiment: Time-course cell proliferation / survival of 143B cells; assay type: cell-based; settings: 143B cells under combined Piericidin and G6PDi, supplemented
Method: All cell lines, 143b, HeLa, U2OS, and transmitochondrial cybrids carrying mutation in CI (ND2), CIII (CytB) or CIV (Cox2) subunits, were maintained in DMEM high glucose (HyClone), 10% FBS and 1% P/S at 37°C with 5% CO2. Mitochondrial mutant cells were cultured with supplementation of 50 µg/mL uridine. The selected cancer cell lines with different levels of malic enzyme (HCC15, KYSE410, CAKI1, J82, MDAMB453, Colo320, NCIH1703) were obtained from the DSMZ-German Collection of Microorganisms and Cell Cultures GmbH and cultured in the same DMEM 10% FBS medium. OCI-Lys3 and RCH-ACV cell lines (cells in suspension), were obtained from the same repository and cultured in RPMI 10% FBS medium. Transfections for gain- and loss-of-function studies were performed according to the manufacturer's instructions using the polyfect reagent (Qiagen, 301107). […] Subsequently, cells were trypsinized and quantified using a hemocytometer (NanoEnTek, DHC-N01). Cell viability was quantified using propidium iodide (PI; 50 µg/ml) staining.
Next, we conducted time-course experiments to gain further knowledge on the metabolic determinants underlying the observed synthetic lethality between PPP and OXPHOS. 143B cells were treated either with Piericidin or G6PDi (selective inhibitor of G6PD) alone or the combination of both and cell proliferation was quantified over the course of 96 h. […]

[2] = system: Colo320 cells; experiment: Colo320 xenograft tumor growth; assay type: in vivo, NMRI-Foxn1^nu/nu mice
Method: Xenografts experiments were carried out in 4 weeks old female NMRI-Foxn1^nu/nu mice that were subcutaneously injected with Colo320 cells. For each tumor, 2 million cells were resuspended in Matrigel Matrix: PBS solution (1:1) (Corning, #354234) and 100 uL of volume was injected in the flanks of each mouse. Tumors were measured every other day using digital vernier caliper until the volume reached […]. At this point, they were sacrificed with CO2 and posterior cervical disruption. Tumors were isolated and frozen in -80°C for future analysis. For volume calculation, we used the formula V = ((LxW^2))/(2) [formula] in mm^3, were V = tumor volume, W = tumor width and L = tumor length.
To inhibit Mitochondrial Complex I in vivo, we employed IACS-010759 (Selleckchem, #S8731), a small-molecule inhibitor of complex I. IACS was dissolved in DMSO at a 10% concentration and then prepared for administration at 0.5% in Methyl cellulose (Sigma, #M0262). Each mouse received a dose of 10 mg/kg for five consecutive days via oral gavage.
We propose that sensitivity to OXPHOS inhibitors can be, at least in part, mediated by combined expression of the NADPH-producing enzymes G6PD and ME1. To test this hypothesis […], we correlated protein expression of G6PD and ME1 for hundreds of cell lines. […]

[3] = system: 143B cell lines; experiment: Cell viability of CRISPR knock-out 143B cell lines treated with ETC inhibitors; assay type: cell-based
Method: All cell lines, 143b, HeLa, U2OS, and transmitochondrial cybrids carrying mutation in CI (ND2), CIII (CytB) or CIV (Cox2) subunits, were maintained in DMEM high glucose (HyClone), 10% FBS and 1% P/S at 37°C with 5% CO2. Mitochondrial mutant cells were cultured with supplementation of 50 µg/mL uridine. The selected cancer cell lines with different levels of malic enzyme (HCC15, KYSE410, CAKI1, J82, MDAMB453, Colo320, NCIH1703) were obtained from the DSMZ-German Collection of Microorganisms and Cell Cultures GmbH and cultured in the same DMEM 10% FBS medium. OCI-Lys3 and RCH-ACV cell lines (cells in suspension), were obtained from the same repository and cultured in RPMI 10% FBS medium. Transfections for gain- and loss-of-function studies were performed according to the manufacturer's instructions using the polyfect reagent (Qiagen, 301107). For cell number and proliferation experiments, cells were seeded in 12 or 6-well plates and allowed to proliferate for the specified durations. Subsequently, cells were trypsinized and quantified using a hemocytometer (NanoEnTek, DHC-N01). Cell viability was quantified using propidium iodide (PI; 50 µg/ml) staining.
Generation of knockout cell lines using CRISPR-Cas9 technology was performed with the lenti-CRISPR v2 vector (Addgene #52961). Guide sequences are: • sgGFPT1, 5-[…]-3 (SEQ ID NO: 1); • sgG6PD, 5-[…]-3 (SEQ ID NO: 2); • sgPHGDH, 5-[…]-3 (SEQ ID NO: 3); • sgMPC1, 5-[…]-3 (SEQ ID NO: 4) • sgPC, 5-CAGGCCCGGAACACACGGA-3 (SEQ ID NO: 5); • sgACLY, 5-[…]-3 (SEQ ID NO: 6); • sgME1, 5-[…]-3 (SEQ ID NO: 7).
To investigate glucose-dependent alternative metabolic pathways that become essential upon ETC inhibition, we generated through CRISPR/Cas9 technology, knock-out (KO) 143B cell lines for each of the following rate-limiting enzymes and transporters. We selected glucose 6 phosphate dehydrogenase (G6PD) for the PPP, Glutamine-Fructose-6-Phosphate Transaminase 1 (GFPT1) for the hexosamine pathway, Phosphoglycerate Dehydrogenase (PHGDH) for the serine biosynthesis pathway and Mitochondrial Pyruvate Carrier 1 (MPC1) to prevent pyruvate entry into the mitochondria. These KO and Control cells were treated with two specific ETC inhibitors (Piericidin A that targets Complex I and Antimycin A that targets Complex III) and cell viability was assessed after 3 days of treatment. […] We took advantage of the fruit fly Drosophila melanogaster model, as it is cost- and time-efficient and recapitulate a wide range of phenotypes seen in patients with metabolic and mitochondrial disorders. We obtained flies carrying mutations in Zw and Pgd genes (named: Pgd^39 Zw^lo2a), corresponding to human orthologs G6PD and 6PGD respectively. […]

N[C@@H](CCC(=O)N[C@@H](CS)C(=O)NCC(=O)O)C(=O)O [GSH]
cell death phenotype [1]: rescued

Cc1nc(-c2nc(-c3ccc(OC(F)(F)F)cc3)no2)nn1Cc1cccc(N2CCC(S(C)(=O)=O)CC2)c1 [IACS-010759]
effect on tumor size ([2]; Colo320 cells ectopically expressing ME1): completely lost
tumor size ([2]; Colo320 cells subcutaneous in nude mice, 10 mg/kg oral gavage): prominently reduced

Antimycin A
cell viability ([3]; G6PD KO 143B cells, after 3 days of treatment): sensitive
survival or proliferation ([3]; KO cells for GFPT1, PHGDH or MPC1, after 3 days of treatment): no differences
